# Measured values published in patent US12312599B2, “Methods, compositions, and kits for producing beige adipocytes and treating metabolic disorders” (MaineHealth, priority 2018, dated 2025).
# B1: IL-4: human IL-4 (Peprotech), used at 10 nM (protein, UniProt P05112 25-153, looked up)
# Interleukin-4: HKCDITLQEIIKTLNSLTEQKTLCTELTVTDIFAASKNTTEKETFCRAATVLRQFYSHHEKDTRCLGATAQQFHRHKQLIRFLKRLDRNLWGLAGLNSCPVKEANQSTLENFLERLKTIMREKYSKCSS
# Columns and labels:
# Format in all cases: cell-based, human
# [1] = tested on: iPSCs; test: Mesoderm induction of iPSCs: FOXF1 and IRX3 expression
# Experimental: PSCs were cultured in monolayer on hESC-qualified Matrigel-coated plates (Corning) and expanded in NutriStem hPSC XF Medium (Stemgent) and passaged with ReLeSR passaging reagent (STEMCELL Technologies). For mesoderm induction (Day 0), PSC colonies was dissociated with TrypLE cell dissociation reagent (Thermofisher) and plated on Matrigel coated plates in NutriStem medium containing 10 μM Y-27632 Rho kinase inhibitor (Calbiochem). The following day (Day 1), NutriStem medium was replaced with STEMdiff Mesoderm Induction Medium (MIM) (STEMCELL Technologies) and changed each day until day 5.
# Note: Only use Y-27632 stock solutions that have been resuspended in DMSO. […] Conduct Mesoderm induction of iPSC in a laminar flow cabinet. • 3. Expand cells in NutriStem hPSC XF Medium overnight and change 100% of the medium without Y-27632 every 24 hours in a laminar flow cabinet for cell culture. When changing media, tilt plate up and allow media to pool at the bottom of wells. Aspirate the pooled medium without touching the surface of the plate. Replace with medium warmed to room temperature by pipetting 2 ml down the side of the wells. Cell Passaging • 1. Expand cell colonies until they have reached 70-80% confluence in high-density areas of the wells. High-density accumulation can occur along the edges of the well as well as the middle. Cells permitted to reach high density will lose their potential for differentiation after multiple passages. • 2. Prior to cell passage, warm cell wash buffer and NutriStem hPSC XF Medium to room temperature. Conduct cell passage in a laminar flow cabinet. • 3. Aspirate NutriStem hPSC XF Medium from wells with vacuum aspirator and wash with PBS without calcium or magnesium. Remove PBS and add 1 ml of ReLeSR reagent to side of well. Agitate plate to allow ReLeSR reagent to spread evenly on the surface. • 4. Aspirate ReLeSR reagent with vacuum aspirator after 30 seconds, which will leave behind a thin film of liquid. Incubate plate at 37° C. for 5-8 minutes undisturbed. • 5. Add fresh NutriStem hPSC XF Medium to wells and gently remove the cell colonies from the plate. Check that most cells have been dislodged from the plate surface with a light microscope. If not, rewash with more medium as needed. • 6. Transfer cell colony suspension in NutriStem hPSC XF Medium to Matrigel coated culture plates for further expansion (see Cell plating and culture above). Generation of iPSC Derived MSCs Mesoderm Induction of iPSC • 1. When iPSCs have reached 70-80% confluence, they will need to be passaged as single cells rather than colonies prior to mesoderm induction (day 0). • 2. Prepare for passage by warming cell wash buffer and NutriStem hPSC XF medium to room temperature and add Y-27632 Rho kinase inhibitor to medium at a final concentration of 10 μM. […]
# [2] = tested on: iPSC-beige adipocytes; test: UCP1 qPCR after β3-adrenergic stimulation of iPSC-beige adipocytes
# [3] = tested on: iPSC-beige adipocytes; test: Seahorse XF oxygen consumption after β3-adrenergic stimulation; conditions: adipocytes whitened 4 days without rosiglitazone, CL316,243 for 4 hr
# [4] = tested on: iPSC-beige adipocytes; test: Fatty acid uptake assay; conditions: adipocytes whitened 6 days without rosiglitazone
# Experimental: Following washes, add secondary antibody diluted at a ratio of 1:1200 and incubate 2 hours at room temperature. • 5. Remove secondary antibody solution and wash 3 times with TBS with Tween 20 (5 minutes per wash). • 6. Develop membrane with Clarity™ Western ECL Substrate and detect using a Bio-Rad ChemiDoc Touch Imaging System. • 7. Quantitation of protein was performed using Image Lab software (Bio-Rad). Fatty Acid Uptake Assay Preparation • 1. Expand and grow iPSC-beige and whitened iPSC-beige adipocytes to full maturity in a 96 well plate (day 12) (see Generation of beige adipocytes above). To whiten iPSC-beige adipocytes for this assay, induce iPSC-MSCs for three days in the induction cocktail as described in the differentiation protocol (see Generation of beige adipocytes above). Following three days of induction, replace beige induction medium with DMEM containing 10% FBS and insulin ([…]). Change 100% of medium every 3 days until full maturity (day 12). • 2. On day 12, replace culture medium with DMEM containing 10% FBS. Change 100% of medium every 2 days for 6 days. • 3. Following 6 days of rest, remove culture medium and replace with […] of serum free DMEM containing 0.2% BSA. Incubate the plate at 37° C. in a 5% CO2 incubator for 1 hour. • 4. After 1 hour, add CL316,243 ([…]) to designated wells. Allow cells to incubate for 2 hours. • 5. […] Quantification and Statistical Analysis
# [5] = tested on: FD-MSCs; test: Beige adipogenic precursor markers in FD-MSCs (flow cytometry, immunostaining, qPCR); conditions: 2 days pretreatment
# Experimental: All assays were performed between 7 and 15 passages. For osteocyte differentiation, mature MSCs were grown in 24 well culture plates to 100% confluency in MesenCult-ACF and induced to differentiate in OsteoLife Complete Osteogenesis Medium (Lifeline Cell Technology) for 21 days prior to staining with Lifeline Alizarin Red Stain to visualize calcium deposition. For chondrocyte differentiation. For beige adipogenic precursor generation, cells were grown in 24 well culture plates to 90% confluence and treated with 5 uM SB413542 (Sigma) and 10 nM human IL-4 (Peprotech) for 2 days. For beige adipogenic induction, adipogenic precursors are differentiated for 3 days with adipogenic medium consisting of T3 (2 nM), insulin (170 nM), rosiglitazone (1 μM), SB413542 (5 uM), IBMX (0.5 mM), dexamethasone (5 μM) and indomethacin (125 μM) in EGM-2 medium (Lonza) supplemented with the BulletKit minus FGF2 (modified from^33). Thereafter, cells are maintained in adipogenic medium without IBMX, dexamethasone and indomethacin. The medium was changed every 3 days and adipocytes were fully differentiated by 9-12 days as determined by lipid accumulation and peak expression of UCP1.
# Cell Isolation, Expansion and Differentiation of Interscapular Brown Adipose Tissue Preadipocytes • 1. Prior to adipose cell isolation, warm DMEM, FBS and cell wash buffer to room temperature. • 2. In a laminar flow cabinet for cell culture, place 5 g of adipose tissue on a 100×20 mm dish. Suspend tissue in 1 mL of Adipose Tissue Dissociation Kit enzyme digest cocktail and finely mince with a razorblade. • 3. Transfer cell suspension slurry to a 5 mL polystyrene round bottom tube and add an additional 1.5 mL of enzyme digest cocktail to tube. • 4. Incubate tube at 37° C. on a rotating nutator for 30 minutes. During incubation period, briefly vortex sample for 5 s in 10-minute intervals. • 5. Transfer cells to a 15 mL tube and add 5 mL of DMEM. Filter cell suspension through a 100 μm strainer into a new 15 mL tube and centrifuge at 300 g for 5 minutes to form a pellet. • 6. Remove supernatant and leave behind […] of DMEM. […]
molecule,measurement,setting,value
Cc1c[nH]c(-c2cnc(NCCNc3ccc(C#N)cn3)nc2-c2ccc(Cl)cc2Cl)n1 [CHIR],FOXF1 protein compared to StemDiff MIM,[1]; 1.5 μM CHIR in combination with VEGF and BMP4,significant increase
same,expression of FOXF1 (qPCR),[1]; CHIR raised to 5 μM in combination with BMP4 and VEGF,decrease
"C[C@H](Cc1ccc2c(c1)OC(C(=O)[O-])(C(=O)[O-])O2)NC[C@H](O)c1cccc(Cl)c1.[Na+].[Na+] [CL316,243]",effect on UCP1 expression,"[2]; during initial differentiation, in the presence of rosiglitazone",masked or inhibitory
same,UCP1 expression,"[2]; during initial differentiation, without rosiglitazone",increased
same,UCP1 expression,"[2]; mature iPSC-beige adipocytes, CL316,243 1 μM, 4 hr",increased expression
same,overall respiration and proton leak,[3],increased overall respiration and proton leak
same,fatty acid (FA) uptake,[4],increased
B1,transcription of beige adipogenic precursor markers PDGFRα and EBF2,[5],little effect
